Data published in PubChem BioAssay (NCI).
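Dose response: 5 concentrations. Exposure: 48 h. Format: 96-well plates. Endpoint: linear interpolation; highest concentration if not reached. GI50 = concentration required for 50% inhibition of growth. Definition used: TGI = concentration required for complete inhibition of growth.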

Tests used:
Assay in all cases: NCI tumour cell line growth inhibition, 48 h
786-0 renal = tested on: 786-0 renal
A498 renal = tested on: A498 renal
A549 NSCLC = tested on: A549 NSCLC
ACHN renal = tested on: ACHN renal
BT-549 breast = tested on: BT-549 breast
CAKI-1 renal = tested on: CAKI-1 renal
CCRF-CEM leukemia = tested on: CCRF-CEM leukemia
COLO 205 colon = tested on: COLO 205 colon
DU-145 prostate = tested on: DU-145 prostate
EKVX NSCLC = tested on: EKVX NSCLC
HCC-2998 colon = tested on: HCC-2998 colon
HCT-116 colon = tested on: HCT-116 colon
HCT-15 colon = tested on: HCT-15 colon
HL-60(TB) leukemia = tested on: HL-60(TB) leukemia
HOP-62 NSCLC = tested on: HOP-62 NSCLC
HOP-92 NSCLC = tested on: HOP-92 NSCLC
HS 578T breast = tested on: HS 578T breast
HT29 colon = tested on: HT29 colon
IGROV1 ovarian = tested on: IGROV1 ovarian
K-562 leukemia = tested on: K-562 leukemia
LOX IMVI melanoma = tested on: LOX IMVI melanoma
M14 melanoma = tested on: M14 melanoma
MALME-3M melanoma = tested on: MALME-3M melanoma
MCF7 breast = tested on: MCF7 breast
MDA-MB-231 breast = tested on: MDA-MB-231 breast
MDA-MB-435 = tested on: MDA-MB-435
MOLT-4 leukemia = tested on: MOLT-4 leukemia
NCI-H226 lung = tested on: NCI-H226 lung
NCI-H23 lung = tested on: NCI-H23 lung
NCI-H460 lung = tested on: NCI-H460 lung
NCI-H522 lung = tested on: NCI-H522 lung
NCI/ADR-RES ovarian = tested on: NCI/ADR-RES ovarian
OVCAR-3 ovarian = tested on: OVCAR-3 ovarian
OVCAR-4 ovarian = tested on: OVCAR-4 ovarian
OVCAR-5 ovarian = tested on: OVCAR-5 ovarian
OVCAR-8 ovarian = tested on: OVCAR-8 ovarian
PC-3 prostate = tested on: PC-3 prostate
RPMI-8226 leukemia = tested on: RPMI-8226 leukemia
RXF 393 renal = tested on: RXF 393 renal
SF-268 CNS = tested on: SF-268 CNS
SF-295 CNS = tested on: SF-295 CNS
SF-539 CNS = tested on: SF-539 CNS
SK-MEL-2 melanoma = tested on: SK-MEL-2 melanoma
SK-MEL-28 melanoma = tested on: SK-MEL-28 melanoma
SK-MEL-5 melanoma = tested on: SK-MEL-5 melanoma
SK-OV-3 ovarian = tested on: SK-OV-3 ovarian
SN12C renal = tested on: SN12C renal
SNB-19 CNS = tested on: SNB-19 CNS
SNB-75 CNS = tested on: SNB-75 CNS
SR leukemia = tested on: SR leukemia
SW-620 colon = tested on: SW-620 colon
TK-10 renal = tested on: TK-10 renal
U251 CNS = tested on: U251 CNS
UACC-257 melanoma = tested on: UACC-257 melanoma
UACC-62 melanoma = tested on: UACC-62 melanoma
UO-31 renal = tested on: UO-31 renal

COc1cc2c(cc1O)CC[C@@H]1[C@@H]2CC[C@]2(C)[C@@H](OCCCN(C)C)CC[C@@H]12
GI50 (786-0 renal): 90.5 nM
TGI (786-0 renal): 201 nM
GI50 (A498 renal): 278 nM
TGI (A498 renal): 901 nM
GI50 (A549 NSCLC): 165 nM
TGI (A549 NSCLC): 650 nM
GI50 (ACHN renal): 164 nM
TGI (ACHN renal): 527 nM
GI50 (BT-549 breast): 116 nM
TGI (BT-549 breast): 394 nM
GI50 (CAKI-1 renal): 271 nM
TGI (CAKI-1 renal): 904 nM
GI50 (CCRF-CEM leukemia): 178 nM
TGI (CCRF-CEM leukemia): 556 nM
GI50 (COLO 205 colon): 268 nM
TGI (COLO 205 colon): 1030 nM
GI50 (DU-145 prostate): 161 nM
TGI (DU-145 prostate): 603 nM
GI50 (EKVX NSCLC): 208 nM
TGI (EKVX NSCLC): 958 nM
GI50 (HCC-2998 colon): 130 nM
TGI (HCC-2998 colon): 346 nM
GI50 (HCT-116 colon): 98.1 nM
TGI (HCT-116 colon): 381 nM
GI50 (HCT-15 colon): 125 nM
TGI (HCT-15 colon): 558 nM
GI50 (HL-60(TB) leukemia): 96.8 nM
TGI (HL-60(TB) leukemia): 203 nM
GI50 (HOP-62 NSCLC): 182 nM
TGI (HOP-62 NSCLC): 728 nM
GI50 (HOP-92 NSCLC): 112 nM
TGI (HOP-92 NSCLC): 473 nM
GI50 (HS 578T breast): 210 nM
TGI (HS 578T breast): 1190 nM
GI50 (HT29 colon): 96.9 nM
TGI (HT29 colon): 233 nM
GI50 (IGROV1 ovarian): 523 nM
TGI (IGROV1 ovarian): 1430 nM
GI50 (K-562 leukemia): 100 nM
TGI (K-562 leukemia): 331 nM
GI50 (LOX IMVI melanoma): 90.6 nM
TGI (LOX IMVI melanoma): 173 nM
GI50 (M14 melanoma): 93.3 nM
TGI (M14 melanoma): 190 nM
GI50 (MALME-3M melanoma): 90.2 nM
TGI (MALME-3M melanoma): 194 nM
GI50 (MCF7 breast): 148 nM
TGI (MCF7 breast): 439 nM
GI50 (MDA-MB-231 breast): 104 nM
TGI (MDA-MB-231 breast): 219 nM
GI50 (MDA-MB-435): 89.9 nM
TGI (MDA-MB-435): 182 nM
GI50 (MOLT-4 leukemia): 145 nM
TGI (MOLT-4 leukemia): 555 nM
GI50 (NCI-H226 lung): 617 nM
TGI (NCI-H226 lung): 1570 nM
GI50 (NCI-H23 lung): 119 nM
TGI (NCI-H23 lung): 552 nM
GI50 (NCI-H460 lung): 163 nM
TGI (NCI-H460 lung): 550 nM
GI50 (NCI-H522 lung): 99.9 nM
TGI (NCI-H522 lung): 248 nM
GI50 (NCI/ADR-RES ovarian): 133 nM
TGI (NCI/ADR-RES ovarian): 440 nM
GI50 (OVCAR-3 ovarian): 155 nM
TGI (OVCAR-3 ovarian): 543 nM
GI50 (OVCAR-4 ovarian): 180 nM
TGI (OVCAR-4 ovarian): 871 nM
GI50 (OVCAR-5 ovarian): 296 nM
TGI (OVCAR-5 ovarian): 1140 nM
GI50 (OVCAR-8 ovarian): 196 nM
TGI (OVCAR-8 ovarian): 733 nM
GI50 (PC-3 prostate): 183 nM
TGI (PC-3 prostate): 748 nM
GI50 (RPMI-8226 leukemia): 126 nM
TGI (RPMI-8226 leukemia): 301 nM
GI50 (RXF 393 renal): 88.9 nM
TGI (RXF 393 renal): 226 nM
GI50 (SF-268 CNS): 182 nM
TGI (SF-268 CNS): 801 nM
GI50 (SF-295 CNS): 98 nM
TGI (SF-295 CNS): 208 nM
GI50 (SF-539 CNS): 86.7 nM
TGI (SF-539 CNS): 172 nM
GI50 (SK-MEL-2 melanoma): 76.9 nM
TGI (SK-MEL-2 melanoma): 198 nM
GI50 (SK-MEL-28 melanoma): 102 nM
TGI (SK-MEL-28 melanoma): 243 nM
GI50 (SK-MEL-5 melanoma): 83.3 nM
TGI (SK-MEL-5 melanoma): 154 nM
GI50 (SK-OV-3 ovarian): 198 nM
TGI (SK-OV-3 ovarian): 675 nM
GI50 (SN12C renal): 304 nM
TGI (SN12C renal): 1080 nM
GI50 (SNB-19 CNS): 303 nM
TGI (SNB-19 CNS): 1060 nM
GI50 (SNB-75 CNS): 76.8 nM
TGI (SNB-75 CNS): 273 nM
GI50 (SR leukemia): 120 nM
TGI (SR leukemia): 390 nM
GI50 (SW-620 colon): 160 nM
TGI (SW-620 colon): 513 nM
GI50 (TK-10 renal): 154 nM
TGI (TK-10 renal): 496 nM
GI50 (U251 CNS): 126 nM
TGI (U251 CNS): 334 nM
GI50 (UACC-257 melanoma): 104 nM
TGI (UACC-257 melanoma): 206 nM
GI50 (UACC-62 melanoma): 110 nM
TGI (UACC-62 melanoma): 269 nM
GI50 (UO-31 renal): 224 nM
TGI (UO-31 renal): 860 nM
